# “And” between values parts separate entries of the source, which are not always exact repeats. Identical values can stand only once. Counter-ions that a name gives are not always drawn.
# Tests used:
# Format in all cases: cell-based, cat
# T1R1/T1R3 receptor [1] = target: T1, T1R1/T1R3 receptor (Felis catus, UniProt E3UMS2); assay: Agonist screening of transmembrane compounds on T1R1/T1R3 in HEK293 cells (Example 8); conditions: for T1R1/T1R3 agonist: transmembrane compound tested at 0.01, 0.1 and 1 mM, HEK293 cells expressing T1R1/T1R3, calcium readout
# Method: (§1) Agonist Screening Method: HEK293 cells that stably express T1R3 and inducibly express T1R1 were exposed to a transmembrane compound. Activation of the T1R1/T1R3 receptor was detected by a change in intracellular calcium levels using a calcium sensitive fluorescent dye and/or a luminescent reporter system. […] A FLIPR® Tetra or a FlexStation® 3 was used for data capture.
# Each transmembrane compound was tested at concentrations of 0.01 mM, 0.1 mM, and 1 mM. […] To generate the dose response curves, the transmembrane compound was tested at concentrations of between 0.0001 mM and 1.0 mM in the presence of GMP and Ala.
# T1R1/T1R3 receptor [2] = target: T1, T1R1/T1R3 receptor; assay: PAM screening of transmembrane compounds with GMP and Ala on T1R1/T1R3 in HEK293 cells (Example 8); conditions: for T1R1/T1R3 PAM: transmembrane compound at 0.01, 0.1 and 1 mM with GMP + Ala mixtures (T1-T4), PAM if response greater than sum of compound alone and GMP+Ala alone
# From the text: as §1, with “PAM” for “Agonist”, “to” for “to a”, “compound alone or in combination with Ala and GMP to activate the umami receptor.” for “compound.”
# Dose response curves were generated for each transmembrane compound at concentrations of 0 (buffer only), 0.01, 0.1 and 1 mM, wherein each of the three concentrations of transmembrane compound was tested in combination with 0.03 mM GMP+100 mM Ala (T1); 0.6 mM GMP+10 mM Ala (T2); 0.1 mM GMP+60 mM Ala (T3) and 0.3 mM GMP+60 mM Ala (T4). The T4 mixture was also tested in a 2-fold dilution series (the T4(X) Concentration). In these experiments, the first test concentration was 2× (2 times) the T4 concentration. The subsequent test concentrations were 2-fold dilutions from that (1×, 0.5× etc.). This dilution series was tested with or without the addition of the test compound at a constant 0.3 mM concentration.
# Activation of the umami receptor was also determined in the presence of 1 mM GMP+100 mM Ala to generate a “maximum” umami receptor activation level.
# T1R1/T1R3 receptor [3] = target: T1, T1R1/T1R3 receptor; assay: Activation of T1R1/T1R3 receptor by transmembrane compounds alone or with alanine, IMP, GMP, phenylalanine; HEK293 cells, calcium fluorescence (Example 5)
# Procedure, shortened: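 HEK293 cells stably expressing feline T1R3 with inducible T1R1 treated with serial dilutions (up to 10 mM) of transmembrane compounds, alone or combined with amino acids and/or nucleotides. Activation read as intracellular calcium change via calcium-sensitive fluorescent dye; T1R3-only cells served as control.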
Compound,T1R1/T1R3 agonist (T1R1/T1R3 receptor [1]),T1R1/T1R3 PAM (T1R1/T1R3 receptor [2]),other results
"Cl.N[C@@H](Cc1ccccc1)C(=O)OCc1ccccc1 [Formula 20, L-Phenylalanine benzyl ester hydrochloride]",Yes,Yes,
"O=C(CN1C(=O)C(=O)N(Cc2ccccc2)C1=O)c1ccccc1 [Formula 1, 1-benzyl-3-(2-oxo-2-phenylethyl)imidazolidine-2,4,5-trione]",No,No,
"O=C(CN1C(=O)C(=O)N(CCc2cccs2)C1=O)c1ccccc1 [Formula 6, 1-(2-oxo-2-phenylethyl)-3-(2-(thiophen-2-yl)ethyl)imidazolidine-2,4,5-trione]",No,No,
"CCCC(CCC)NC(=O)c1ccc2c(c1)OCO2 [N-(heptan-4-yl)benzo[d][1,3]dioxole-5-carboxamide]",,,"+Alanine (20 mM) Max resp % of IMP (T1R1/T1R3 receptor [3]; +Alanine (20 mM)): 142.7 % of IMP and 118.2 % of IMP; +Alanine (20 mM) Max resp ΔF/F (T1R1/T1R3 receptor [3]; +Alanine (20 mM)): 1.7725 ΔF/F and 1.2 ΔF/F; Max resp % of IMP +Alanine (20 mM) (T1R1/T1R3 receptor [3]; +Alanine (20 mM), relative to IMP): 118.2% and 142.7%; +IMP (0.2 mM) Max resp % of Ala (T1R1/T1R3 receptor [3]; +IMP (0.2 mM)): 119.6 % of Ala and 165.8 % of Ala; +IMP (0.2 mM) Max resp ΔF/F (T1R1/T1R3 receptor [3]; +IMP (0.2 mM)): 1.4725 ΔF/F; Max resp ΔF/F +IMP (0.2 mM) (T1R1/T1R3 receptor [3]; +IMP (0.2 mM)): 1.393 ΔF/F and 1.473 ΔF/F; Max resp % of Ala +IMP (0.2 mM) (T1R1/T1R3 receptor [3]; +IMP (0.2 mM), relative to Ala): 165.8% and 119.6%; Activity (T1R1/T1R3 receptor [3]; Table 18, all transmembrane compounds tested, active / N/A (not active)): active; ΔF/F0 of ternary mixture with phenylalanine and GMP compared to phenylalanine and GMP without the agonist (T1R1/T1R3 receptor [3]; with phenylalanine and GMP): approximately 10 ×; agonist profile assessment (activation of T1R1/T1R3 by the compound alone) (T1R1/T1R3 receptor [1]): agonist; PAM profile assessment (activation of T1R1/T1R3 in the presence of GMP and Alanine) (T1R1/T1R3 receptor [2]): PAM activity"
"COC(=O)[C@H](Cc1ccccc1)NCc1ccccc1 [Formula 15, N-Benzyl-L-phenylalanine methyl ester hydrochloride]",Yes,Yes,
"O=C1CC(=O)N(Cc2ccccc2)C(=O)N1Cc1ccccc1 [Formula 24, 1,3-dibenzylpyrimidine-2,4,6(1H,3H,5H)-trione]",Yes,No,
"COC(=O)[C@@H](Cc1ccccc1)NCc1ccccc1.Cl [Formula 16, N-Benzyl-D-Phenylalanine methyl ester hydrochloride]",Yes,Yes,
"Cc1ccc(CNC(Cc2ccccc2)C(=O)O)cc1 (centres unmarked) [Formula 23, 2-((4-methylbenzyl)amino)-3-phenylpropanoic acid]",No,No,
"O=C(CN1C(=O)C(=O)N(Cc2ccccc2)C1=O)c1ccc2c(c1)CCC2 [Formula 2, 1-benzyl-3-(2-(2,3-dihydro-1H-inden-5-yl)-2-oxoethyl)imidazolidine-2,4,5-trione]",No,No,
"N#Cc1cccc(NC(=O)CN2C(=O)C(=O)N(Cc3ccccc3)C2=O)c1 [Formula 9, 2-(3-benzyl-2,4,5-trioxoimidazolidin-1-yl)-N-(3-cyanophenyl)acetamide]",No,No,
"O=C(CN1C(=O)C(=O)N(Cc2ccccc2)C1=O)c1ccc2c(c1)OCCCO2 [Formula 8, 1-benzyl-3-(2-(3,4-dihydro-2H-benzo[b][1,4]dioxepin-7-yl)-2-oxoethyl)imidazolidine-2,4,5-trione]",No,Weak PAM,
Cl.N[C@@H](Cc1ccccc1)C(=O)OCc1ccccc1 [L-Phenylalanine benzyl ester hydrochloride],,,agonist profile assessment (activation of T1R1/T1R3 by the compound alone) (T1R1/T1R3 receptor [1]): agonist; PAM profile assessment (activation of T1R1/T1R3 in the presence of GMP and Alanine) (T1R1/T1R3 receptor [2]): PAM activity
COC(=O)[C@H](CC(C)C)NCc1ccccc1.Cl [Benzyl-L-leucine methyl ester hydrochloride],,,agonist profile assessment (activation of T1R1/T1R3 by the compound alone) (T1R1/T1R3 receptor [1]): agonist; PAM profile assessment (activation of T1R1/T1R3 in the presence of GMP and Alanine) (T1R1/T1R3 receptor [2]): PAM activity
"O=C(CN1C(=O)C(=O)N(Cc2ccccc2)C1=O)c1ccc2c(c1)OCCO2 [Formula 4, 1-benzyl-3-(2-(2,3-dihydrobenzo[b][1,4]dioxin-6-yl)-2-oxoethyl)imidazolidine-2,4,5-trione]",No,No,
"COc1ccc(C(=O)CN2C(=O)C(=O)N(Cc3ccccc3)C2=O)c(OC)c1 [Formula 5, 1-benzyl-3-(2-(2,4-dimethoxyphenyl)-2-oxoethyl)imidazolidine-2,4,5-trione]",No,No,
"N[C@@H](Cc1ccc(O)cc1)C(=O)OCc1ccccc1 [Formula 21, L-Tyrosine benzyl ester]",No,No,
"COc1ccccc1C(=O)CN1C(=O)C(=O)N(Cc2cccs2)C1=O [Formula 10, 1-(2-(2-methoxyphenyl)-2-oxoethyl)-3-(thiophen-2-ylmethyl)imidazolidine-2,4,5-trione]",No,No,
"O=C(CN1C(=O)C(=O)N(CCc2cccs2)C1=O)c1cccc2ccccc12 [Formula 11, 1-(2-(naphthalen-1-yl)-2-oxoethyl)-3-(2-(thiophen-2-yl)ethyl)imidazolidine-2,4,5-trione]",No,No,
COC(=O)C(NCc1ccccc1)c1ccccc1 (centres unmarked) [Methyl-2-benzylamino-2-phenylacetate],,,agonist profile assessment (activation of T1R1/T1R3 by the compound alone) (T1R1/T1R3 receptor [1]): agonist; PAM profile assessment (activation of T1R1/T1R3 in the presence of GMP and Alanine) (T1R1/T1R3 receptor [2]): PAM activity
"O=C(CN1C(=O)C(=O)N(Cc2ccccc2)C1=O)c1ccc(Br)cc1 [Formula 3, 1-benzyl-3-(2-(4-bromophenyl)-2-oxoethyl)imidazolidine-2,4,5-trione]",No,No,
"O=C(O)[C@H](Cc1ccc(O)cc1)NCc1ccccc1 [Formula 22, N-Benzyl-L-Tyrosine]",No,No,
"O=C1C(=O)N(Cc2ccccc2)C(=S)N1Cc1ccccc1 [Formula 13, 1,3-dibenzyl-2-thioxoimidazolidine-4,5-dione]",No,No,
"CCCC(CCC)NC(=O)c1ccc2c(c1)OCO2 [Formula 14, N-(heptan-4-yl)benzo[d][1,3]dioxole-5-carboxamide]",Yes,Yes,
"COC(=O)[C@H](CC(C)C)NCc1ccccc1.Cl [Formula 18, Benzyl-L-leucine methyl ester hydrochloride]",Yes,Yes,
"O=C(CN1C(=O)C(=O)N(Cc2ccccc2)C1=O)c1ccc(Cl)s1 [Formula 12, 1-benzyl-3-(2-(5-chlorothiophen-2-yl)-2-oxoethyl)imidazolidine-2,4,5-trione]",No,Weak PAM,
COC(=O)[C@@H](Cc1ccccc1)NCc1ccccc1.Cl [N-Benzyl-D-Phenylalanine methyl ester hydrochloride],,,agonist profile assessment (activation of T1R1/T1R3 by the compound alone) (T1R1/T1R3 receptor [1]): agonist; PAM profile assessment (activation of T1R1/T1R3 in the presence of GMP and Alanine) (T1R1/T1R3 receptor [2]): PAM activity
"COC(=O)C(NCc1ccccc1)c1ccccc1 (centres unmarked) [Formula 19, Methyl-2-benzylamino-2-phenylacetate]",Yes,Yes,
"O=C(CN1C(=O)C(=O)N(CCc2cccs2)C1=O)c1ccc2c(c1)OCO2 [Formula 7, 1-(2-(benzo[d][1,3]dioxol-5-yl)-2-oxoethyl)-3-(2-(thiophen-2-yl)ethyl)imidazolidine-2,4,5-trione]",No,No,
